We go through four molecules from patent US20240000075A1, “FUNGICIDAL ARYL AMIDINES” (CORTEVA AGRISCIENCE LLC, priority 2020, published 2024).

Usually melting point stands for the temperature of the solid-liquid transition.

Molecules are shown by their SMILES. Like-named read-outs stand apart in the source and are kept apart here. Bounds are passed on as bounds.

In one series the test system is Zymoseptoria tritici. The series is described as follows: Septoria leaf blotch of wheat, whole-plant fungicidal activity (SEPTTR). The conditions noted are these: read-out: % Disease Control Rating SEPTTR. Format: in vivo, Zymoseptoria tritici on wheat plants (variety 'Yuma'). The gist of the method: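 Compounds in acetone, diluted with nine volumes of water containing 110 ppm Triton X-100, were sprayed to run-off on 'Yuma' wheat seedlings at full first-leaf emergence. Spore inoculation was 3 days before (3DC, curative) or 1 day after (1DP, protectant) treatment, then 3 days at 100% RH and greenhouse. First-leaf disease severity (0–100%) was scored relative to untreated plants as percent control.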

The test system of the next series is Puccinia triticina. As to the kind of experiment: Wheat brown rust, whole-plant fungicidal activity (PUCCRT). Format: in vivo, Puccinia triticina on wheat plants (variety 'Yuma'). Conditions: 24 h, 1DP (1 day protectant), read-out: % Disease Control Rating PUCCRT. The gist of the method: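 Wheat 'Yuma' seedlings at first-leaf stage sprayed to run-off with compound from acetone stock diluted in nine volumes water containing 110 ppm Triton X-100, then inoculated with Puccinia triticina spores. Held overnight in dark dew room at 100% RH, then greenhouse for disease development.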

In the next series the test system is Phakopsora pachyrhizi. As to the kind of experiment: Asian soybean rust, whole-plant fungicidal activity (PHAKPA). Format: in vivo. The conditions noted are these: read-out: % Disease Control Rating PHAKPA. In outline: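 Ten-day-old 'Williams 82' soybean seedlings sprayed to run-off with compound in acetone/water (1:9, 0.011% Tween-20), air-dried, then inoculated; 24 h dark dew room at 100% RH, then growth room. Disease severity scored 0–100% on sprayed leaves; percent control relative to untreated plants.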

The next series deals with Rhynchosporium commune. The series is described as follows: Leaf blotch of barley, whole-plant fungicidal activity (RHYNSE). Format: in vivo. The conditions noted are these: 24 h, 1DP (1 day protectant), read-out: % Disease Control Rating RHYNSE. In outline:
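Barley cv. 'Harrington' at full first-leaf emergence (7-10 seedlings per pot) was sprayed to run-off with compound in acetone plus nine volumes of water containing 110 ppm Triton X-100, air-dried, then inoculated with spore suspension. Plants spent two days in a dark dew room at 100% RH, then moved to greenhouse for disease development.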

For another series, the system named is Cochliobolus sativus. As to the kind of experiment: Spot blotch of barley, whole-plant fungicidal activity (COCHSA). Format: in vivo. The conditions noted are these: 1DP (1 day protectant), 200 ppm. How it is done:
Technical grades of materials were dissolved in acetone, which were then mixed with nine volumes of water (H2O) containing 110 ppm Triton X-100. The fungicide solutions were applied onto wheat seedlings using an automated booth sprayer to run-off. All sprayed plants were allowed to air dry prior to further handling. All fungicides were evaluated using the aforementioned method for their activity vs. all target diseases, unless stated otherwise. Example E. Evaluation of Fungicidal Activity: Spot Blotch of Barley (Cochliobolus sativus Bayer Code COCHSA) Barley seedlings (variety ‘Harrington’) were propagated in soil-less potting mix, with each pot having 8 to 12 plants, and used for testing when the first leaf was fully emerged. Test plants were inoculated with a spore suspension of Cochliobolus sativus 24 h after fungicide treatments. After inoculation the plants were kept in […] for two days to permit spores to germinate and infect the leaf. The plants were then transferred to a greenhouse for disease to develop. Fungicide formulation, application and disease assessment followed the procedures as described in Example A.

For the molecule `CCN(C)/C=N/c1cc(C)c(C(=O)CC2CCCC2)cc1C` [Compound 4], the pest or weed control at 200 ppm in the series on Zymoseptoria tritici (24 h, 1DP (1 day protectant)) was greater than 85%; in the series on Zymoseptoria tritici (72 h, 3DC (3 day curative)), 50 to 85%; in the series with Puccinia triticina, greater than 85%; in the series with Phakopsora pachyrhizi (24 h, 1DP (1 day protectant)) it was greater than 85%; with Phakopsora pachyrhizi (72 h, 3DC (3 day curative)) it was greater than 85%; with Rhynchosporium commune, greater than 85%. The “% Disease Control Rating COCHSA” value in the series on Cochliobolus sativus is listed as “A (>85%)”.
Take `CCN(C)/C=N/c1cc(C)c(C(=O)Cc2ccc(C)cc2)cc1C` [Compound 9]: the melting point is 90 to 93 °C. The pest or weed control at 200 ppm in the series on Zymoseptoria tritici (24 h, 1DP (1 day protectant)) was less than 20%. Moreover, in the series with Zymoseptoria tritici (72 h, 3DC (3 day curative)), the pest or weed control at 200 ppm was less than 20%. Also, in the series on Puccinia triticina, the pest or weed control at 200 ppm is greater than 85%. Also, the pest or weed control at 200 ppm in the series with Phakopsora pachyrhizi (24 h, 1DP (1 day protectant)) was greater than 85%. Further, the pest or weed control at 200 ppm with Phakopsora pachyrhizi (72 h, 3DC (3 day curative)) is greater than 85%. Also, the pest or weed control at 200 ppm with Rhynchosporium commune was greater than 85%. Besides, the “% Disease Control Rating COCHSA” value in the series with Cochliobolus sativus is on record as “A (>85%)”.
`CCN(C)/C=N/c1ccc(C(=O)CCCC(F)(F)F)c(C)c1C` [Compound 14]: the melting point lay in the range of 49 to 52 °C. Also, the pest or weed control at 200 ppm in the series with Zymoseptoria tritici (24 h, 1DP (1 day protectant)) is less than 20%. Also, in the series with Zymoseptoria tritici (72 h, 3DC (3 day curative)), the pest or weed control at 200 ppm is less than 20%. For the same molecule, the pest or weed control at 200 ppm in the series on Puccinia triticina is greater than 85%. Further, in the series with Phakopsora pachyrhizi (24 h, 1DP (1 day protectant)), the pest or weed control at 200 ppm is greater than 85%. Also, the pest or weed control at 200 ppm with Phakopsora pachyrhizi (72 h, 3DC (3 day curative)) was greater than 85%. Also, in the series with Rhynchosporium commune, the pest or weed control at 200 ppm was less than 20%.
Regarding `CCN(C)/C=N/c1ccc(C(=O)CC2CCCCC2)c(C)c1C` [Compound 15], the melting point is 68 to 72 °C. Further, the pest or weed control at 200 ppm with Zymoseptoria tritici (24 h, 1DP (1 day protectant)) is less than 20%. Besides, the pest or weed control at 200 ppm with Zymoseptoria tritici (72 h, 3DC (3 day curative)) was less than 20%. Also, in the series with Puccinia triticina, the pest or weed control at 200 ppm was less than 20%. Also, the pest or weed control at 200 ppm in the series on Phakopsora pachyrhizi (24 h, 1DP (1 day protectant)) is greater than 85%. The pest or weed control at 200 ppm in the series on Phakopsora pachyrhizi (72 h, 3DC (3 day curative)) is greater than 85%. Moreover, in the series with Rhynchosporium commune, the pest or weed control at 200 ppm was in the range of 50 to 85%.
